≈ marks a conversion by molar mass, not a printed value. Blank lines part the entries; values can stand above or below the compound they belong to.
Tests used:
Klebsiella isolates [1] = assay: Broth microdilution MIC (MICBMD) of Klebsiella isolates; assay type: cell-based, Klebsiella pneumoniae, Klebsiella oxytoca; conditions: limited clinical screen concentrations
Method: (§1) An aliquot of bacterial suspension was added to 50 mL centrifuge tubes (Corning, N.Y.) containing 9 mL of pre-warmed (37° C.) filtered MHB to produce a final density of 5×10^5-1×10^6 bacteria per mL. This suspension was incubated at 37° C. with shaking at 100 RPM for 30 minutes to obtain an actively dividing culture. An aliquot of antibiotic working solution from the previously described dilution series (appropriate to the concentration tested) was then added to each tube before a further 30-minute incubation with shaking, during which time a microbroth dilution (MBD) plate was prepared for overnight incubation at 37° C. as previously described in Clinical and Laboratory Standards Institute (2015) Performance Standards for Antimicrobial Susceptibility Testing: Informational Supplement. CLSI document M100-S25. Clinical and Laboratory Standards Institute, 950, West Valley Road, Suite 2500, Wayne, Pa., 19087, USA.
FIG. 2 outlines the work flow as exemplified herein. In brief, an isolate was retrieved from cryopreservation, plated onto blood agar to ensure purity, and inoculated into trypticase soy broth (TSB, described above) overnight to simulate biological fluids. A 1 mL aliquot of this overnight suspension was inoculated into Mueller-Hinton broth (MHB) [comprising about 300.0 g beef extract (dehydrated infusion from), about 17.5 g casein hydrolysate, about 1.5 g starch, reconstituted in about 1 L of water, pH 7.3±0.1 as measured and kept at 25° C.] and incubated at 37° C. to ensure bacteria were actively dividing. One aliquot was subjected to traditional microbroth dilution (MBD) susceptibility testing.

Klebsiella isolates [2] = assay: Acoustic flow cytometry-assisted susceptibility test (FAST), MICFAST and S/NS, Klebsiella isolates; assay type: cell-based, Klebsiella pneumoniae, Klebsiella oxytoca; conditions: limited clinical screen concentrations
Method: A 1 mL aliquot of bacterial suspension was centrifuged, washed and resuspended in 1 mL filtered Hank's Buffered Salt Solution (HBSS; comprising about 0.137 M NaCl, about 5.4 mM KCl, about 0.25 mM Na2HPO4, about 0.1 g Glucose, about 0.44 mM KH2PO4, 1.3 mM CaCl2), 1.0 mM MgSO4, about 1.3 mM CaCl2), 1.0 mM MgSO4, and about 4.2 mM NaHCO3) and diluted in series (e.g., in a 1:10 serial dilution) to a final 1:1000 dilution.
One μL (microliter) of SYTO 9 stain (e.g., ThermoFisher Scientific) working stock solution was added to the final dilution at a final concentration of 5 μM and incubated for 5 minutes before counting bacterial events by acoustic flow cytometer (AFC) (Attune, ThermoFisher, Eugene, Oreg., USA), which was used to prepare a standardised inoculum density for susceptibility testing.
as §1
One millilitre of bacterial suspension from each antibiotic concentration was harvested by centrifugation at 7800×g for 5 minutes, washed and diluted 1:10 in filtered HBSS in a light-impermeable microcentrifuge tube, then stained with SYTO 9 stain at a final concentration of 5 μM, and incubated for 5 min before AFC sampling. Hoechst 33342 dye (NucBlue, Thermo Fisher Scientific, Eugene, Oreg., USA) and a SYTO 9/propidium iodide (PI) combination (Thermo Fisher Scientific) were used in a series of replicate experiments.
The acoustic flow cytometer employed was Attune acoustic flow cytometer (Thermo Fisher Scientific), having installed therein a 488 nm blue laser with a 530/30 nm filter on the photomultiplier tube for measuring fluorescence of cells assayed. Alternatively, the Attune NxT acoustic flow cytometer (Thermo Fisher Scientific) can be employed. AFC was calibrated at the beginning of each acquisition session using fluorescently labelled size calibration beads, in accordance with the manufacturer's instructions (ThermoFisher Scientific). The AFC settings were as follows: Forward Scatter (FSC) voltage 3100, FSC threshold 4×1000 AND, blue laser 1 (BL1—530/30 nm) voltage 1900, BL1 threshold 1×1000 AND, high sensitivity, flow rate 25 μL/minute, and an acquisition volume of 125 μL. Acquisition was halted after either collection of 20,000 events across all gates, or after 3 minutes, with each sample acquired in technical triplicate.
Collected data was exported in the FCS 3.0 file format and analysed in Flow v10.0 (FlowJo LLC, Ashland, Oreg., USA) by a single user, blinded to the MIC results by BMD (MICBMD).
Subsequent to quantitative MICFAST determination, the acoustic flow cytometer data were re-analysed in silico to produce a limited sub-set for qualitative susceptibility determination. The six antibiotic dilutions (0 mg/L, 0.25 mg/L, 1 mg/L, 2 mg/L, 4 mg/L and 16 mg/L) most relevant to qualitative susceptibility assessment were used. In silico analysis was restricted to the first technical triplicate of each recorded sample. Gating strategies remained consistent, with the addition of a gate restricting analysis to only those events recorded in the first 60 seconds of acquisition.

Staphylococcus aureus [3] = assay: Broth microdilution (BMD) MIC of Staphylococcus aureus isolates; assay type: cell-based
From the text: The acoustic flow cytometry assisted method of the present invention was employed essentially as described in the previous working examples to determine susceptibility of Staphylococcus aureus to both cefoxitin and oxacillin. Susceptibility classification into S/NS and quantitative MIC values obtained using the acoustic flow cytometry assisted method were compared to results obtained using the conventional broth microdilution (BMD) method. Results are shown in Table 4 (Panels A and B) below and in FIGS. 9-12.

Staphylococcus aureus [4] = assay: Acoustic flow cytometry-assisted susceptibility test (FAST) of Staphylococcus aureus isolates; assay type: cell-based; design: MIC dilution at which susceptibility-associated signature is observed by AFC: unit not given beside the values
Method: The material and methods utilized are briefly outlined herein below. The method used was similar to that outlined in the earlier examples albeit adjusted to allow for 3 hour incubation of Staphylococcus aureus to account for longer doubling times of Staphylococcus aureus relative to K. pneumoniae used in the previous examples.
Events were acquired by forward scatter and BL1 (515 nm-545 nm) using the Attune with voltages and thresholding set as follows: Forward Scatter Voltage: 3050; Forward Scatter Threshold: 3×1000 AND; Side Scatter Voltage: 2950; Side Scatter Threshold: IGNORE; BL1 Voltage: 1500; BL1 Threshold: 1×1000 AND.
Nine mL of MHB was aliquoted into twelve, 50 mL Falcon tubes. Each tube was labelled with the required final test concentration of antibiotic. […] Tubes were transferred to a 35° C. incubator to pre-warm.
One 1 mL of the overnight bacterial suspension was transferred into a 1.5 mL microcentrifuge tube and centrifuge at 7,800×g for about 5 minutes. The supernatant was discarded, and the pellet re-suspended in 1 mL of 0.1 μm filtered HBSS. This step was optionally repeat.
About 900 μL of HBSS was dispended into three 1.5 mL tubes—two clear tubes and one amber tube. About 100 μL of the bacterial suspension was inoculated into the first tube (clear) and serially dilute to reach 1:1000 by the third tube (amber). About 1 μl of SYTO 9 (5 μM final concentration) was added to the third tube. The dye was incubated, protected from light, for at least 5 minutes (individual sample types were optionally required with longer incubations) and then the Stained Control on the Attune acoustic flow cytometer instrument was read
The event density (events/μL) from your stained control aliquots was used to calculate the inoculum volume required to produce a 5.5×10^5 bacteria mL-1 in 10 mL of MHB. For example, (400 events/A)/(10 mL×550000)=7.3 μL, rounded up to the closest 10 μL.
The required volume of bacterial suspension was added from the overnight culture into each 50 ml tube with 9 ml of preheated MHB. Optionally incubate with shaking and protected from light, at 100 RPM at 35° C. for 60 minutes.
MHB (0.1 μm filtered) was used to dilute the antibiotics in this preparation. About one aliquot of antibiotic was removed from the −20° C. freezer and equilibrated to room temperature by ambient heat exchange, and diluted to reach a range of working stock concentrations that were are ten times the desired test concentrations.
Once the 60-minute incubation of bacterial suspension was complete, about 1 mL of 10× antibiotic stocks were added to tubes containing bacterial suspensions to reach final desired test concentrations (1 ml antibiotic and total volume 10 ml). The 50 mL tubes were returned to the incubator and incubated, by shaking at 100 RPM at 35° C., for a further 3 hours.
After 3 hours, about 1 mL suspension was harvested from each tube and transferred to a 1.5 mL clear microcentrifuge tube (marked with the corresponding antibiotic concentration), then centrifuge at 7,800×g for 5 minutes. The supernatant discarded and the pellet resuspended in 1 mL of 0.1 μm filtered HBSS. This wash step was optionally repeated.
Using the computer connected to the Attune, new samples were created ready for the collection of data. That the following parameters were set: Sensitivity: High Sensitivity; Flow Rate: 25 μL/minute; Acquisition Volume: 125 μL; Events Collected: No less than 20,000 from all gates, Time: 1 minute.
About 899 μL HBSS was dispensed into one 1.5 mL amber tube per sample. About 100 μL of suspension per tube was added to achieve a 1 in 10 dilution. About 1 μl of SYTO 9 was added to each tube and the tube vortexed for no more than 2 seconds (over vortexing can lead to bacterial clustering and/or attachment to tube walls).
Samples were placed on the SIP and acquired, in technical triplicate, as per the parameters outlined above. […]

[5] = K. pneumoniae ATCC 700603 (carbapenem susceptible control)
[6] = K. pneumoniae ATCC BAA1705 (carbapenem resistant control)
[7] = S. aureus isolate ATCC 29213, MSSA
[8] = S. aureus isolate W0096111, MSSA
[9] = S. aureus isolate W0226111, MSSA
[10] = S. aureus isolate W0236111, MSSA
[11] = S. aureus isolate W0296111, MSSA
[12] = S. aureus isolate W0816111, MSSA
[13] = S. aureus isolate W0866111, MRSA
[14] = S. aureus isolate W6496111, MSSA
[15] = S. aureus isolate W9196111, MSSA
[16] = S. aureus isolate W9346111, MRSA
[17] = S. aureus isolate W . . . 6111, MRSA
[18] = S. aureus isolate WACC 98, MRSA

Compound: C[C@@H](O)[C@H]1C(=O)N2C(C(=O)O)=C(S[C@@H]3CN[C@H](C(=O)Nc4cccc(C(=O)O)c4)C3)[C@H](C)[C@H]12 [Analytical Ertapenem, ertapenem]
- MICBMD (Klebsiella isolates [1]; [5]): ≤0.25
- MICBMD (Klebsiella isolates [1]; [6]): >16
- MICFAST (Klebsiella isolates [2]; [5]): ≤0.25
- MICFAST (Klebsiella isolates [2]; [6]): >16

Compound: C[C@@H](O)[C@H]1C(=O)N2C(C(=O)O)=C(SCCN=CN)C[C@H]12 [Analytical Imipenem, imipenem]
- MICBMD (Klebsiella isolates [1]; [5]): 2
- MICBMD (Klebsiella isolates [1]; [6]): >16
- MICFAST (Klebsiella isolates [2]; [5]): 1
- MICFAST (Klebsiella isolates [2]; [6]): >16

- MIC (BMD) (Staphylococcus aureus [3]; [7]): 4 µg/mL
- MIC (BMD) (Staphylococcus aureus [3]; [8]): 2 µg/mL
- MIC (BMD) (Staphylococcus aureus [3]; [9]): 2 µg/mL
- MIC (BMD) (Staphylococcus aureus [3]; [10]): 2 µg/mL
- MIC (BMD) (Staphylococcus aureus [3]; [11]): 4 µg/mL
- MIC (BMD) (Staphylococcus aureus [3]; [12]): 2 µg/mL
- MIC (BMD) (Staphylococcus aureus [3]; [13]): 32 µg/mL
- MIC (BMD) (Staphylococcus aureus [3]; [14]): 4 µg/mL
- MIC (BMD) (Staphylococcus aureus [3]; [15]): 2 µg/mL
- MIC (BMD) (Staphylococcus aureus [3]; [16]): 32 µg/mL
- MIC (BMD) (Staphylococcus aureus [3]; [17]): 16 µg/mL
- MIC (BMD) (Staphylococcus aureus [3]; [18]): 128 µg/mL
- MIC dilution at which susceptibility-associated signature is observed by AFC (Staphylococcus aureus [4]; S. aureus ATCC 29213): 4
- MIC dilution at which susceptibility-associated signature is observed by AFC (Staphylococcus aureus [4]; S. aureus WACC 98): 128
- MIC (FAST) (Staphylococcus aureus [4]; [7]): 2 µg/mL (≈ 4.68 µM)
- MIC (FAST) (Staphylococcus aureus [4]; [8]): 4 µg/mL (≈ 9.36 µM)
- MIC (FAST) (Staphylococcus aureus [4]; [9]): 2 µg/mL (≈ 4.68 µM)
- MIC (FAST) (Staphylococcus aureus [4]; [10]): 4 µg/mL (≈ 9.36 µM)
- MIC (FAST) (Staphylococcus aureus [4]; [11]): 4 µg/mL (≈ 9.36 µM)
- MIC (FAST) (Staphylococcus aureus [4]; [12]): 2 µg/mL (≈ 4.68 µM)
- MIC (FAST) (Staphylococcus aureus [4]; [13]): 16 µg/mL (≈ 37.4 µM)
- MIC (FAST) (Staphylococcus aureus [4]; [14]): 4 µg/mL (≈ 9.36 µM)
- MIC (FAST) (Staphylococcus aureus [4]; [15]): 4 µg/mL (≈ 9.36 µM)
- MIC (FAST) (Staphylococcus aureus [4]; [16]): 32 µg/mL (≈ 74.9 µM)
- MIC (FAST) (Staphylococcus aureus [4]; [17]): 16 µg/mL (≈ 37.4 µM)
- MIC (FAST) (Staphylococcus aureus [4]; [18]): 64 µg/mL (≈ 150 µM)
Compound: CO[C@@]1(NC(=O)Cc2cccs2)C(=O)N2C(C(=O)O)=C(COC(N)=O)CS[C@@H]21 [Cefoxitin, cefoxitin]

Source: patent US20210292807A1, “METHOD FOR TESTING ANTIMICROBIAL SUSCEPTIBILITY” (priority 2017, published 2021)
